The subject of series [1] is KB3 (epitheloid lung cancer) cell lines. The experiment in a line: Cell growth inhibition (cytotoxicity), MTS assay, KB3 cell line. Format: cell-based. To be noted: KB3, MTS assay, triplicate, read-out: KB3 IC50. As for the experimental part: Cell growth inhibition was determined by the MTS assay; the number of viable cells were proportional to the extent of formazan production in the presence or absence of drugs. […]
On the technique in general: Formazan colour is commonly taken as a measure of viable cells.

The test system of series [2] is bloodstream forms of T. brucei and T. congolense. The experiment in a line: Trypanocidal activity in vitro, Alamar Blue assay. The class given is cell-based, Trypanosoma brucei and T. congolense. The source says: Trypanosoma brucei and T. congolense are the causative agents of sleeping sickness in humans and nagana in cattle, respectively. The protozoan parasites live extracellularlyin blood and tissue fluids of mammals and are transmitted by the bite of infected tsetse flies (Glossina spp.). Here the trypanocidal activity against bloodstream forms of T. brucei and T. congolense of bis-8-hydroxy quinoline N-substituted benzylamines derivatives was investigated in vitro, according to methods described in. Steverding et al. (2006) Kinetoplastid Biology and Disease, 5(3): 1-5; Hongmance et al., (2007) Antimicrob. Agents Chemother. 51:1105-1106; and Zhao et al., (2005) Bio-org. Med. Chem.; 13: 3921-3926. Cells were seeded into 96-well tissue culture plates in 200 μl medium containing various concentrations of analogues dissolved in H2O. The controls contained the respective solvent alone. […] After 24 h (trypanosomes) or 43 h (HL-60) incubation, 20 μl of the colorimetric viability indicator Alamar Blue® was added to each well. The cells were incubated for a further 24 h (trypanosomes) or 5 h (HL-60) so that the total incubation time was 48 h. Then, the plates were read on a Dynatech MR5000ELISA reader (Denkendorf, Germany),using a test wavelength of 550 nm and a reference wave length of 630 nm. Each test was set up in duplicate and repeated three times. For comparison, the general cytotoxicity of the compounds was assayed with human myeloid leukaemia HL-60 cells. The anti-trypanosomal activities and the general cytotoxicities of the new analogues were evaluated using the Alamar Blue® assay.
On the technique in general: The colour change of resazurin is a common sign of viable cells or microbes.

Series [3] deals with KaKa. The series can be described thus: Growth inhibition, MTT colorimetric assay, KaKa. Format: cell-based. To be noted: 72 h, read-out: IC50 KaKa. The protocol:
(§1) Compounds that met the criteria for activity on KB3 cells were further tested for drug growth inhibitory activity in 5 carcinoma, 6 glioma and 3 melanoma cell lines, shown in Table 4. A549 (human lung adenocarcinoma epithelial), BxPC3 (pancreatic cancer), LoVo (colon cancer), MCF-7 (epithelial breast cancer), PC3 (human prostate cancer), Hs683 (human glioma), T98G (glioblastoma), U373 (human glioblastoma-astrocytoma), U138 MG (human glioma), epithelial-like), SKMEL28 (human melanoma), B16-F10 (mouse melanoma) and RhTP (rhabdomyosarcoma) cell lines were cultured in presence of the drugs for 3 days. The cytotoxic activity is expressed as (IC50). Inhibition of cell proliferation measured by the MTT colorimetric assay. The values reported in Table 4 are means of six distinct values. The standard errors are <5% as compared to the mean values.

For series [4], the system named is MCF-7 (epithelial breast cancer). The series can be described thus: Growth inhibition, MTT colorimetric assay, MCF7. The class given is cell-based. To be noted: Homo sapiens, MCF7, 72 h, read-out: IC50 MCF7. As for the experimental part: as §1, with “A549” for “Compounds that met the criteria for activity on KB3 cells were further tested for drug growth inhibitory activity in 5 carcinoma, 6 glioma and 3 melanoma cell lines, shown in Table 4. A549”, “values.” for “values. The standard errors are <5% as compared to the mean values.”

Series [5] has as its system B16-F10 (mouse melanoma). The series can be described thus: Growth inhibition, MTT colorimetric assay, B16F10. Format: cell-based. The note with it: Mus musculus, B16-F10, 72 h, read-out: IC50 B16F10. The protocol:
as §1

Series [6] concerns RhTP (rhabdomyosarcoma). The series can be described thus: Growth inhibition, MTT colorimetric assay, RhTp. Format: cell-based. The note with it: 72 h, read-out: IC50 RhTp. As for the experimental part: as §1
Series [7] relates to Host. The experiment in a line: Growth inhibition, MTT colorimetric assay, Host. Format: cell-based. To be noted: 72 h, read-out: IC50 Host. The protocol:
as §1

The test system of series [8] is Hs683 (human glioma). The experiment in a line: Growth inhibition, MTT colorimetric assay, HS683. To be noted: Homo sapiens, Hs 683, 72 h, read-out: IC50 HS683. Format: cell-based. As for the experimental part: as §1, with “A549” for “Compounds that met the criteria for activity on KB3 cells were further tested for drug growth inhibitory activity in 5 carcinoma, 6 glioma and 3 melanoma cell lines, shown in Table 4. A549”, “values.” for “values. The standard errors are <5% as compared to the mean values.”

Series [9] concerns GL19. The experiment in a line: Growth inhibition, MTT colorimetric assay, GL19. Format: cell-based. The note with it: GL19, 72 h, read-out: IC50 GL19. The protocol:
as §1

The test system of series [10] is SKMEL28 (human melanoma). The experiment in a line: Growth inhibition, MTT colorimetric assay, SKMEL-28. Format: cell-based. The note with it: Homo sapiens, SK-MEL-28, 72 h, read-out: IC50 SKMEL-28. The protocol: as §1
Series [11] deals with U138 MG (human glioma). The series can be described thus: Growth inhibition, MTT colorimetric assay, U138. To be noted: Homo sapiens, U138-MG, 72 h, read-out: IC50 U138. The class given is cell-based. As for the experimental part: as §1
Series [12] concerns A549 (human lung adenocarcinoma epithelial). The series can be described thus: Growth inhibition, MTT colorimetric assay, A549. To be noted: Homo sapiens, A549, 72 h, read-out: IC50 A549. Format: cell-based. The protocol:
as §1, with “A549” for “Compounds that met the criteria for activity on KB3 cells were further tested for drug growth inhibitory activity in 5 carcinoma, 6 glioma and 3 melanoma cell lines, shown in Table 4. A549”, “values.” for “values. The standard errors are <5% as compared to the mean values.”

Series [13] deals with BxPC3 (pancreatic cancer). The series can be described thus: Growth inhibition, MTT colorimetric assay, BxPC3. Format: cell-based, human. To be noted: Homo sapiens, BXPC-3, 72 h, read-out: IC50 BxPC3. The protocol:
Cells are cultured at 37° C. in Falcon culture dishes, incubated at 5% CO2 in a suitable culture medium available from Invitrogen Corp. Anti-proliferative activity is determined by an MTT assay (bromide of (3-[4,5-dimethylthiazolium-yl]diphenyltetrazolium)). According to one standard protocol, absorbance is measured at 570 nm (see Dumont et al. (2007) Neoplasia 9: 766-776.
as §1, with “A549” for “Compounds that met the criteria for activity on KB3 cells were further tested for drug growth inhibitory activity in 5 carcinoma, 6 glioma and 3 melanoma cell lines, shown in Table 4. A549”, “values.” for “values. The standard errors are <5% as compared to the mean values.”

The test system of series [14] is LoVo (colon cancer). The series can be described thus: Growth inhibition, MTT colorimetric assay, LoVo. The class given is cell-based. To be noted: Homo sapiens, LoVo, 72 h, read-out: IC50 LoVo. As for the experimental part:
as §1, with “A549” for “Compounds that met the criteria for activity on KB3 cells were further tested for drug growth inhibitory activity in 5 carcinoma, 6 glioma and 3 melanoma cell lines, shown in Table 4. A549”, “values.” for “values. The standard errors are <5% as compared to the mean values.”

Series [15] has as its system U373 (human glioblastoma-astrocytoma). The experiment in a line: Growth inhibition, MTT colorimetric assay, U373. Format: cell-based. The note with it: Homo sapiens, U373 MG, 72 h, read-out: IC50 U373. The protocol:
as §1

Series [16] concerns T98G (glioblastoma). The experiment in a line: cells. The class given is cell-based. The note with it: Homo sapiens, T98G, 72 h, read-out: IC50 T98G. The protocol: as §1, with “A549” for “Compounds that met the criteria for activity on KB3 cells were further tested for drug growth inhibitory activity in 5 carcinoma, 6 glioma and 3 melanoma cell lines, shown in Table 4. A549”, “values.” for “values. The standard errors are <5% as compared to the mean values.”

The subject of series [17] is PC3 (human prostate cancer). The experiment in a line: Growth inhibition, MTT colorimetric assay, PC3. The note with it: Homo sapiens, 72 h, read-out: IC50 PC3. The class given is cell-based. As for the experimental part:
as §1

[18] abbreviates: 50% growth inhibition, 48 h total incubation, read-out: GI50.
Setting [19] is: lowest concentration at which all cells were killed, 48 h total incubation, read-out: MIC.
Setting [20] is: 3 days with drug, means of six values, unit inferred.
[21] abbreviates: carcinoma, 3 days with drug, means of six values, unit inferred.
[22] abbreviates: melanoma, 3 days with drug, means of six values, unit inferred.
Setting [23] is: glioma, 3 days with drug, means of six values, unit inferred.

Values after ≈ are worked out from the molar mass of the structure shown. Read-outs that look alike come from different tables or passages of the source. Some results are limits rather than exact numbers.

Experimental findings from patent publication US20110251238A1, “PPAR AGONIST COMPOSITIONS AND METHODS OF USE” (BIOPHARMED, priority 2008, published 2011) are described below.

A word on the IC50: it is the concentration needed to halve the response being measured. As a reminder, the melting point is the temperature of the solid-liquid transition. For `CC(C)(C)OC(=O)N(Cc1cc(C(F)(F)F)cc(C(F)(F)F)c1)Cc1ccc(O)c2ncccc12` [BPM19,190, Tert-butyl-3,5-bis(trifluoromethyl)benzyl((8-hydroxyquinolin-5-yl)methyl)carbamate], the melting point lay in the range of 149 to 152 °C. Moreover, the IC50 in series [1] (Table 3B) was 1000 nM.
A word on the GI50: it is the concentration that inhibits growth by half. Usually MIC stands for the lowest concentration found to suppress growth. In turn, `Oc1ccc(CN(Cc2ccc(O)c3ncccc23)Cc2ccc(O)c3ncccc23)c2cccnc12` [BPM19,218, 5,5′,5″-nitrilotris(methylene)triquinolin-8-ol] returned a melting point of 175 to 178 °C. The IC50 in [1] (Table 3B) was greater than 10000 nM. Further, the concentration for 50% growth inhibition (GI50) in series [2] (setting [18]) amounted to 450 ± 100 nM. For the same molecule, in [2] (setting [19]), the MIC worked out at 1 µM (≈ 0.489 µg/mL).
Consider `Oc1ccc(CN(Cc2cccc(C(F)(F)F)c2)Cc2ccc(O)c3ncccc23)c2cccnc12` [BPM19,189, 5,5′-(3-(trifluoromethyl)benzylazanediyl)bis(methylene)diquinolin-8-ol], for which the IC50 in [3] (setting [20]) turned out to be 6470 nM; in series [4] (setting [21]), 30 nM; in series [1] (Table 3A), 2200 nM; in [5] (setting [22]), 89 nM; in series [6] (setting [20]) it was 69 nM; in series [7] (setting [20]), 679 nM. For the same molecule, the half-inhibitory concentration (IC50) was 36 nM in [8] (setting [23]); 674 nM in series [9] (setting [20]); greater than 10000 nM in [10] (setting [22]); 47 nM in series [11] (setting [23]); 38 nM in [12] (setting [21]); 167 nM in [13] (setting [21]). Further, the IC50 was 94 nM in series [14] (setting [21]), 65 nM in series [15] (setting [23]), 57 nM in series [16] (setting [23]) and 37 nM in [17] (setting [21]). In series [2] (setting [18]), the GI50 amounted to 310 ± 10 nM. Moreover, in series [2] (setting [19]), the MIC came out at 1 µM (≈ 0.489 µg/mL).
As for `Oc1ccc(CN(Cc2cccs2)Cc2ccc(O)c3ncccc23)c2cccnc12` [BPM18,202, 5,5′-(thiophen-2-ylmethylazanediyl)bis(methylene)diquinolin-8-ol], the IC50 worked out at 1760 nM in series [3]; 35 nM in [4]; 2 nM in series [1] (Table 3A); 86 nM in series [5]; 79 nM in series [6]; 1730 nM in series [7]. Also, the half-maximal inhibitory concentration (IC50) was found to be 35 nM in [8]; 3450 nM in [9]; 4830 nM in [10]; 44 nM in series [11]; 27 nM in series [12]; 89 nM in [13]. The half-inhibitory concentration (IC50) in series [14] amounted to 40 nM; in series [15], 85 nM; in series [16], 88 nM; in series [17], 44 nM. Also, the concentration for 50% growth inhibition (GI50) in [2] (48 h) is 310 ± 10 nM. Also, the minimal inhibitory concentration (MIC) in series [2] (48 h) is 1 µM (≈ 0.428 µg/mL).
For `CC(C)(C)OC(=O)N(Cc1cccc(C(F)(F)F)c1)Cc1ccc(O)c2ncccc12` [BPM19,132, Tert-butyl-(8-hydroxyquinolin-5-yl)methyl(3-(trifluoromethyl)benzyl)carbamate], the melting point is 114 to 116 °C. The 50% inhibitory concentration (IC50) in series [1] (Table 3B) stood at 1000 nM.
